Experimental data reported in patent US20090042983A1, “Use of L-carnitine for the treatment of cardiovascular diseases” (Sigma-Tau Industrie Farmaceutiche Riunite S.p.A., priority 2003, published 2009).

Assays:
perfused heart = conditions: cited from earlier work
[1] = tested on: patients with acute myocardial infarction; assay: Multicentre double-blind placebo-controlled randomised clinical trial of L-carnitine on mortality (Example 1); format: in vivo, human
Method: A clinical trial was conducted in order to evaluate the effect of the administration of L-carnitine on the incidence of mortality and heart failure in the short and long term in patients with acute myocardial infarction. The acute myocardial infarction has not localized within a specific region of the organ but it could be located anywhere in the heart. The trial design was that of a multicentre, parallel-group, double-blind, placebo-controlled, randomised trial.
A total of 2,296 male and female patients aged below 80 years were recruited. The study compound, L-carnitine, was administered at a dose of 9 g/day i.v. for the first 5 days and 4 g/day by mouth from day 6 to day 180.
Concomitant therapies were given according to the procedures adopted in local clinical practice.
The efficacy endpoints of the trial consisted in the reduction of mortality and heart failure.
• Typical chest pain lasting>30 minutes, not resolved by the oral or intravenous administration of nitrates; • ECG with ST segment deviation≧0.2 mV in D, and aVL and/or in two or more contiguous precordial leads; • Time interval elapsing from onset of symptoms to trial randomisation<12 hours; • Age<80 years; • Written informed consent.
• Pregnancy or breast-feeding; • Haemodynamically significant valvulopathy; • Hypertrophic or dilated cardiomyopathy; • Congenital heart disease; • Clinically severe liver or kidney disease; • Alcohol abuse; • Other diseases associated with a poor life expectancy; • Conditions making poor compliance with treatment and/or periodic visits likely; • Inclusion in another trial.

[2] = tested on: patients affected by anterior acute myocardial infarction; conditions: cited from earlier work
[3] = tested on: acute myocardial infarction; conditions: 40 mg/kg/day (2.8 g/day); cited from earlier work
[4] = tested on: patients with acute myocardial infarction; conditions: 3 grams every 8 hours (9 grams a day) intravenous for 48 hours; symptoms within 8 hours; 351 patients; cited from earlier work
cardiac ischaemia = conditions: dogs, cardiac ischaemia model; cited from earlier work

C[N+](C)(C)C[C@H](O)CC(=O)[O-].O=C(O)/C=C/C(=O)O [L-carnitine fumarate]
lactate levels (perfused heart): lower lactate levels
postischemic cardiac contraction amplitude (perfused heart): greater
release of LDH (perfused heart): reduced release of LDH
reserve of high-energy phosphate (perfused heart): higher reserve of high-energy phosphate
coronary flow (perfused heart; postischemic): greater

C[N+](C)(C)C[C@H](O)CC(=O)[O-] [L-carnitine]
NUMBER OF DEATHS AT: 1 mos ([1]; 9 g/day i.v. first 5 days, 4 g/day by mouth day 6 to 180, at 1 mos): 45
NUMBER OF DEATHS AT: 2 mos ([1]; 9 g/day i.v. first 5 days, 4 g/day by mouth day 6 to 180, at 2 mos): 53
NUMBER OF DEATHS AT: 6 mos ([1]; 9 g/day i.v. first 5 days, 4 g/day by mouth day 6 to 180, at 6 mos): 64
NUMBER OF DEATHS AT: 12 mos ([1]; 9 g/day i.v. first 5 days, 4 g/day by mouth day 6 to 180, at 12 mos): 67
RR (Relative Risk) of death at 1 mos ([1]; L-carnitine vs placebo, at 1 mos): 0.78
RR (Relative Risk) of death at 2 mos ([1]; L-carnitine vs placebo, at 2 mos): 0.81
RR (Relative Risk) of death at 6 mos ([1]; L-carnitine vs placebo, at 6 mos): 0.86
RR (Relative Risk) of death at 12 mos ([1]; L-carnitine vs placebo, at 12 mos): 0.89
reduction in deaths at the other observation times ([1]; vs placebo, 3 and 7 days, 1, 2, 6, 12 mos): significant reductions
reduction in deaths after 5 days' treatment ([1]; vs placebo, after 5 days' treatment (P<0.05)): statistically significant reduction in deaths
left ventricular dilation in the first year after infarction ([2]; anterior acute myocardial infarction): significant attenuation of left ventricular dilation
deaths during the hospitalisation period ([2]; treated group, L-carnitine within 24 hours from onset of chest pain, 14 in control group, 472 patients in total): 11
difference between patients treated within 4 hours and more than 4 hours after onset of infarct symptoms [3]: no significant difference
mortality vs control group at 7 days after the start of treatment [4]: no significant difference
cardiac lipid metabolism (cardiac ischaemia): active in improving cardiac lipid metabolism
